Results as given in US20250289806A1, “COMPOUNDS FOR PROLIFERATIVE DISORDERS” (UNIVERSITY OF MIAMI, priority 2022, published 2025).
pIC50: −log10 of the molar value. Read-outs that look alike come from different tables or passages of the source.

Columns and labels:
[1] = molecular target: T1, MYLK4 (Homo sapiens, UniProt Q86YV6); experiment: Enzymatic activity assay (Reaction Biology Corporation), MYLK4; assay type: biochemical
T1 construct: purchased Reaction Biology Corporation
T1 sequence (Q86YV6 1-388): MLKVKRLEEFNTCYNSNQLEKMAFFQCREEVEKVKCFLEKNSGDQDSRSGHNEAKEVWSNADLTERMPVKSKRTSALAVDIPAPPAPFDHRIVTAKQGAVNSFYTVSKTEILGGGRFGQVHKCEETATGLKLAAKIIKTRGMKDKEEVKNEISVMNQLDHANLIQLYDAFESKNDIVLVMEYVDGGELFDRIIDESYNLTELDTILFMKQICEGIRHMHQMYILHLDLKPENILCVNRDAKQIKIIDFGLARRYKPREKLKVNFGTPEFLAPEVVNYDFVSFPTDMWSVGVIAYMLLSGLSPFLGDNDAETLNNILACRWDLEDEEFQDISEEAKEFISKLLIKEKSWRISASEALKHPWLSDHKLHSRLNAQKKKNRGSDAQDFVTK
Description: (§1) All enzymatic assays and panel profiling studies are activity assays, which were carried out by Reaction Biology Corporation according to the company's protocols.

[2] = molecular target: T2, STK17A (Homo sapiens, UniProt Q9UEE5); experiment: Enzymatic activity assay (Reaction Biology Corporation), STK17A; assay type: biochemical
T2 construct: purchased Reaction Biology Corporation
T2 sequence (Q9UEE5 1-414): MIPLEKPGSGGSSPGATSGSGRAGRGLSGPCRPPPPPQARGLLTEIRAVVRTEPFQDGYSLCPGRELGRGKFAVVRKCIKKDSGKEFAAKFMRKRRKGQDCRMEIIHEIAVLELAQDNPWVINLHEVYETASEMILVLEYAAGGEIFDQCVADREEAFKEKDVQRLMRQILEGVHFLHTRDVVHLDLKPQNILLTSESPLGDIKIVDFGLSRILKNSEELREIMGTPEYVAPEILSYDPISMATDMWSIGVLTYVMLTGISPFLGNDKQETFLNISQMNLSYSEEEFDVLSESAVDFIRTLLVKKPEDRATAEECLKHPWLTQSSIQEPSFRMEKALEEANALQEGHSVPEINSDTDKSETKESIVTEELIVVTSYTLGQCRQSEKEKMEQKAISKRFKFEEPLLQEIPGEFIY
Description: as §1

[3] = molecular target: T3, DDR1 (Homo sapiens, UniProt Q08345); experiment: Enzymatic activity assay (Reaction Biology Corporation), DDR1; assay type: biochemical
T3 construct: purchased Reaction Biology Corporation
Description: as §1

[4] = tested on: OPM2; experiment: Cell viability assay, OPM2; assay type: cell-based; settings: Homo sapiens, OPM-2
[5] = tested on: BJAB; experiment: Cell viability assay, BJAB; assay type: cell-based; settings: Homo sapiens
[6] = tested on: SKMM2; experiment: Cell viability assay, SKMM2; assay type: cell-based; settings: Homo sapiens, SK-MM-2
[7] = tested on: KMS12BM; experiment: Cell viability assay, KMS12BM; assay type: cell-based; settings: Homo sapiens, KMS-12-BM
[8] = tested on: U266B1; experiment: Cell viability assay, U266B1; assay type: cell-based
[9] = tested on: NALM-6 SF3B1 K666N; experiment: cells; settings: Homo sapiens, NALM-6, 72 h
[10] = tested on: MM-M1; experiment: Cell viability assay, MM-M1; assay type: cell-based
[11] = tested on: K562; experiment: Cell viability assay, K562; assay type: cell-based; settings: Homo sapiens
[12] = tested on: RS4; 11; experiment: Cell viability assay, RS4; 11; assay type: cell-based; settings: Homo sapiens
[13] = tested on: SKNO-1; experiment: Cell viability assay, SKNO-1; assay type: cell-based
[14] = tested on: MEC-1; experiment: Cell viability assay, MEC-1; assay type: cell-based; settings: Homo sapiens, MEC1
[15] = tested on: LP1; experiment: Cell viability assay, LP1; assay type: cell-based; settings: Homo sapiens, LP-1
[16] = tested on: K562 SF3B1 K666N; experiment: cells; settings: Homo sapiens, K562, 72 h
[17] = tested on: RIVA; experiment: Cell viability assay, RIVA; assay type: cell-based
[18] = tested on: MOLM-13; experiment: Cell viability assay, MOLM-13; assay type: cell-based; settings: Homo sapiens
[19] = tested on: HEL92.1.7; experiment: cells; settings: Homo sapiens, HEL 92.1.7, 72 h
[20] = tested on: HL-60; experiment: Cell viability assay, HL-60; assay type: cell-based; settings: Homo sapiens
[21] = tested on: HEL; experiment: Cell viability assay, HEL; assay type: cell-based; settings: Homo sapiens
[22] = tested on: MOLT4; experiment: Cell viability assay, MOLT4; assay type: cell-based; settings: Homo sapiens
[23] = tested on: HEK293T; experiment: Cell viability assay, HEK293T (non-cancer cell line); assay type: cell-based; settings: Homo sapiens, HEK-293T
[24] = tested on: Jurkat; experiment: Cell viability assay, Jurkat; assay type: cell-based; settings: Homo sapiens
[25] = tested on: RPMI8226; experiment: Cell viability assay, RPMI8226; assay type: cell-based; settings: Homo sapiens, RPMI-8226
[26] = tested on: TF1; experiment: Cell viability assay, TF1; assay type: cell-based; settings: Homo sapiens, TF-1
[27] = tested on: KMS12PE; experiment: Cell viability assay, KMS12PE; assay type: cell-based; settings: Homo sapiens, KMS-12-PE
[28] = tested on: MV-4-11; experiment: Cell viability assay, MV-4-11; assay type: cell-based; settings: Homo sapiens, MV4-11
[29] = tested on: SET-2; experiment: Cell viability assay, SET-2; assay type: cell-based; settings: Homo sapiens
[30] = tested on: Kasumi-1; experiment: Cell viability assay, Kasumi-1; assay type: cell-based; settings: Homo sapiens
[31] = tested on: THP-1; experiment: Cell viability assay, THP-1; assay type: cell-based; settings: Homo sapiens
[32] = tested on: NALM-6; experiment: cells; settings: Homo sapiens, NALM-6, 72 h
[33] = tested on: MDSL; experiment: cells; settings: 72 h
[34] = tested on: OCI-AML3; experiment: Cell viability assay, OCI-AML3; assay type: cell-based; settings: Homo sapiens, OCI-AML-3
[35] = enzymatic activity assay, read-out: IC50 STK17A
[36] = enzymatic activity assay, read-out: IC50 MYLK4
[37] = lymphoma, cell viability, 72 hours
[38] = multiple myeloma, cell viability, 72 hours
[39] = multiple myeloma (Example 90 table)

T3 sequence (Q08345 19-913): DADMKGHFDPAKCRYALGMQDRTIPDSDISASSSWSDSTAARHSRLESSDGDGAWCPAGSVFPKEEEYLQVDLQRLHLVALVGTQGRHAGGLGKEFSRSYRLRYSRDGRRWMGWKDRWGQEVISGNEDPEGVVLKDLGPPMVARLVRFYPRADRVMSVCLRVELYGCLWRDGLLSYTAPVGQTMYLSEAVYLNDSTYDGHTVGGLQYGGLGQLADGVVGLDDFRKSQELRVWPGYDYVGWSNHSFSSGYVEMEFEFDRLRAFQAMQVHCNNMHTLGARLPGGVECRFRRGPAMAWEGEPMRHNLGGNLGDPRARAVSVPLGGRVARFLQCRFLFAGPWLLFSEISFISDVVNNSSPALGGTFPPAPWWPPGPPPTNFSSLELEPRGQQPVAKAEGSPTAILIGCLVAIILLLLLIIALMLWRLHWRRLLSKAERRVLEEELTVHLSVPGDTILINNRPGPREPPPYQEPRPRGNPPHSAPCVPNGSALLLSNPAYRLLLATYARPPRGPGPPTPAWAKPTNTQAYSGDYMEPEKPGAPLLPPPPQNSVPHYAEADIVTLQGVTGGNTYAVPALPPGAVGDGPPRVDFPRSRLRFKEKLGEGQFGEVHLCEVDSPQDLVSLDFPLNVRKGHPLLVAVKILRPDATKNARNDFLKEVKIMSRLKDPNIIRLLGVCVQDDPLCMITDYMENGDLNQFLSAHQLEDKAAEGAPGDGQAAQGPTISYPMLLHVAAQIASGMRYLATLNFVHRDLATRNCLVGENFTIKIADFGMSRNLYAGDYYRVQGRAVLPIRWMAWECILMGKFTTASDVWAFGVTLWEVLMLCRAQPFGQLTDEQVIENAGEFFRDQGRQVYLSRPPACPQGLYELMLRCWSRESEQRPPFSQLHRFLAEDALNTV

## c1cc(-c2ccc3nc(N4CCOCC4)ncc3c2)nc(Nc2ccc(N3CCNCC3)cc2)n1 [Example 26]
[1]
  pIC50: > 7.30
[2]; [35]
  pIC50: > 7.30

## c1cc(-c2ccc3nc(N4CCCC4)ncc3c2)nc(Nc2cnn(C3CCNCC3)c2)n1 [Example 3]
[3]
  pIC50: 7.00 to 7.30
[1]; [36]
  pIC50: > 7.30
[2]; [35]
  pIC50: > 7.30

## OCCN1CCC(n2cc(Nc3nccc(-c4ccc5nc(N6CCOCC6)ncc5c4)n3)cn2)CC1 [Example 29]
[3]
  pIC50: > 7.30
[2]; [35]
  pIC50: > 7.30

## O=C(NC1CCNCC1)c1ccc(Nc2nccc(-c3ccc4nc(N5CCCC5)ncc4c3)n2)cc1 [Example 5]
[2]; [35]
  pIC50: < 7.00

## c1cc(-c2ccc3nc(N4CCCC4)ncc3c2)nc(Nc2ccc(N3CCNCC3)nc2)n1 [Example 4]
[1]
  pIC50: > 7.30
[2]; [35]
  pIC50: > 7.30

## OCCn1cc(Nc2nccc(-c3ccc4nc(N5CCOCC5)ncc4c3)n2)cn1 [Example 28]
[1]; [36]
  pIC50: > 7.30
[2]; [35]
  pIC50: > 7.30

## CC(C)NC(=O)c1ccc(Nc2nccc(-c3ccc4nc(N5CCCC5)ncc4c3)n2)cc1 [Example 7]
[4]; OPM2, multiple myeloma, cell viability, 72 hours
  pIC50: 4.64
[5]; [37]
  pIC50: < 4.00
[6]; SKMM2, multiple myeloma, cell viability, 72 hours
  pIC50: < 4.00
[7]; [38]
  pIC50: 5.61
[8]; U266B1, multiple myeloma, cell viability, 72 hours
  pIC50: < 4.00
[9]
  pIC50: 6.04
[10]; MM-M1, multiple myeloma, cell viability, 72 hours
  pIC50: < 4.00
[11]; K562, chronic myeloid leukemia, cell viability, 72 hours
  pIC50: 5.32
[12]; RS4, 11, acute lymphoblastic leukemia, cell viability, 72 hours
  pIC50: 5.08
[13]; SKNO-1, acute myeloid leukemia, cell viability, 72 hours
  pIC50: 4.77
[14]; MEC-1, lymphoma, cell viability, 72 hours
  pIC50: < 4.00
[15]; LP1, multiple myeloma, cell viability, 72 hours
  pIC50: 4.50
[16]
  pIC50: 6.74
[17]; [37]
  pIC50: < 4.00
[18]; MOLM-13, acute myeloid leukemia, cell viability, 72 hours
  pIC50: 6.03
[19]
  pIC50: 6.11
[20]; HL-60, acute myeloid leukemia, cell viability, 72 hours
  pIC50: < 4.00
[21]; acute myeloid leukemia, cell viability, 72 hours
  pIC50: 5.44
[22]; MOLT-4, MOLT4, acute lymphoblastic leukemia, cell viability, 72 hours
  pIC50: 4.79
[23]; non-hematological cell line, cell viability, 72 hours
  pIC50: < 4.00
[24]; acute lymphoblastic leukemia, cell viability, 72 hours
  pIC50: 4.59
[25]; RPMI8226, multiple myeloma, cell viability, 72 hours
  pIC50: 5.05
[26]; TF1, acute myeloid leukemia, cell viability, 72 hours
  pIC50: < 4.00
[27]; [38]
  pIC50: < 4.00
[28]; MV-4-11, acute myeloid leukemia, cell viability, 72 hours
  pIC50: 5.43
[29]; SET-2, acute myeloid leukemia, cell viability, 72 hours
  pIC50: 5.43
[30]; Kasumi-1, acute myeloid leukemia, cell viability, 72 hours
  pIC50: 5.09
[31]; THP-1, acute myeloid leukemia, cell viability, 72 hours
  pIC50: 4.70
[1]
  pIC50: 7.00 to 7.30
[32]
  pIC50: 5.26
[33]
  pIC50: < 4.00
[34]; OCI-AML3, acute myeloid leukemia, cell viability, 72 hours
  pIC50: < 4.00
[2]; [35]
  pIC50: > 7.30

## c1cc(-c2ccc3nc(N4CCOCC4)ncc3c2)nc(Nc2cnn(C3CCNCC3)c2)n1 [Example 27]
[4]; OPM2, multiple myeloma (Example 90 table)
  pIC50: 5.16
[5]; lymphoma (Example 90 table)
  pIC50: 4.92
[6]; SKMM2, multiple myeloma (Example 90 table)
  pIC50: 5.18
[7]; [39]
  pIC50: 5.55
[8]; U266B1, multiple myeloma (Example 90 table)
  pIC50: 4.90
[3]
  pIC50: > 7.30
[10]; MM-M1, multiple myeloma (Example 90 table)
  pIC50: 5.09
[11]; K562, chronic myeloid leukemia (Example 90 table)
  pIC50: 5.06
[12]; RS4-11, RS411, acute lymphoblastic leukemia (Example 90 table)
  pIC50: 5.00
[13]; SKNO-1, acute myeloid leukemia (Example 90 table)
  pIC50: 4.83
[14]; MEC-1, lymphoma (Example 90 table)
  pIC50: 4.85
[15]; LP1, multiple myeloma (Example 90 table)
  pIC50: 5.96
[17]; lymphoma (Example 90 table)
  pIC50: 5.04
[18]; MOLM-13, acute myeloid leukemia (Example 90 table)
  pIC50: 6.71
[20]; HL-60, HL60, acute myeloid leukemia (Example 90 table)
  pIC50: 5.30
[21]; acute myeloid leukemia (Example 90 table)
  pIC50: < 4.00
[22]; MOLT-4, acute lymphoblastic leukemia (Example 90 table)
  pIC50: < 4.00
[23]; non-hematological cell line (Example 90 table)
  pIC50: < 4.00
[24]; acute lymphoblastic leukemia (Example 90 table)
  pIC50: 5.21
[25]; RPMI8226, multiple myeloma (Example 90 table)
  pIC50: 5.57
[26]; TF1, acute myeloid leukemia (Example 90 table)
  pIC50: 4.82
[27]; [39]
  pIC50: 5.55
[28]; MV-4-11, acute myeloid leukemia (Example 90 table)
  pIC50: 6.49
[29]; SET-2, acute myeloid leukemia (Example 90 table)
  pIC50: 6.19
[30]; Kasumi-1, acute myeloid leukemia (Example 90 table)
  pIC50: 6.28
[31]; THP-1, acute myeloid leukemia (Example 90 table)
  pIC50: 5.94
[1]; [36]
  pIC50: > 7.30
[34]; OCI-AML3, acute myeloid leukemia (Example 90 table)
  pIC50: 6.05
[2]; [35]
  pIC50: > 7.30

## c1cc(-c2ccc3nc(N4CCCC4)ncc3c2)nc(Nc2ccc(N3CCOCC3)cc2)n1 [Example 2]
[1]
  pIC50: > 7.30
[2]; [35]
  pIC50: > 7.30

## CC(C)NC(=O)c1cccc(Nc2nccc(-c3ccc4nc(N5CCCC5)ncc4c3)n2)c1 [Example 6]
[2]; [35]
  pIC50: < 7.00

## CC(C)NC(=O)c1ccc(Nc2nccc(-c3ccc4nc(N5CCOCC5)ncc4c3)n2)cc1 [Example 20]
[3]
  pIC50: < 7.00
[1]
  pIC50: 7.00 to 7.30
[2]; [35]
  pIC50: > 7.30

## c1cc(-c2ccc3nc(N4CCCC4)ncc3c2)nc(Nc2ccc(N3CCNCC3)cc2)n1 [Example 1, N-(4-(piperazin-1-yl)phenyl)-4-(2-(pyrrolidin-1-yl)quinazolin-6-yl)pyrimidin-2-amine]
[1]
  pIC50: > 7.30
[2]
  pIC50: 7.00 to 7.30
